Earlier results, collected in patent US20050182074A1 (Pfizer Inc., priority 2004, published 2005).

Legend:
[1] = steady state pharmacokinetics of voriconazole
[2] = AIDS patient on antiretroviral drugs, voriconazole added

Row | effect on voriconazole exposure [1] | plasma concentration on addition of voriconazole [2] | SMILES
1 | no clinically relevant effect | – | COc1ccc2[nH]c([S+]([O-])Cc3ncc(C)c(OC)c3C)nc2c1 (stereo not drawn) [omeprazole]
2 | – | elevated plasma concentrations | CC(C)CN(C[C@@H](O)[C@H](Cc1ccccc1)NC(=O)O[C@H]1CCOC1)S(=O)(=O)c1ccc(N)cc1 [amprenavir]
3 | – | elevated plasma concentrations | Cc1ccnc2c1NC(=O)c1cccnc1N2C1CC1 [nevirapine]
